Here are results for two compounds from US20140206635A1, “METAL-SALEN COMPLEX COMPOUND, LOCAL ANESTHETIC AND ANTINEOPLASTIC DRUG” (IHI CORPORATION, priority 2011, published 2014).

Data set [1] is described as follows: Magnetic field-magnetization curve (MPMS7). Format: physicochemical. The settings on record: magnetic field less than 10000 Oe (1 T); 37 degrees Celsius. The text has this: However, when the magnetic field exceeds 10000 Oe (1 T), the Co salen complex compound or the Mn salen complex compound has large magnetization and is most suited for magnetic induction drug delivery systems which use superconducting magnets.

In another data set the test system is rat L6 cell. Briefly: Rat L6 cell culture with bar magnet, cell count proximal vs distal to the magnet. Format: cell-based. The settings on record: after 48 hours, bar magnet at flask. As for the experimental part:
Culture medium was sprinkled with metal-salen complex compound powder, which is obtained with respect to each of the Fe salen complex compound, the Mn salen complex compound, the Cr salen complex compound, and the Co salen complex compound by the above-described method, in amounts allowing magnetic attraction to be visibly observed at a rat L6 cell confluence of 30%, and the state of the medium was photographed after 48 hours.
Then, after 48 hours, the bottom face of the rectangular flask was photographed from one end to the other, and the cell count was calculated. Incidentally, Referring to FIG. 8, a “position proximal to the magnet” means within a projection area of the magnet end surface at the bottom of the rectangular flask, and a “position distal to the magnet” means a region on the side opposite the magnet end surface at the bottom of the rectangular flask.
As a result, the magnetic drugs and the system equipped with magnetism-generating means according to the present invention can thus allow the drugs to become concentrated in target tissues and tissues of individuals.

Data set [2] can be described thus: Magnetic guidance of i.v. drug to right kidney, SNR by MRI. Format: in vivo. The settings on record: mouse, intravenous; about 0.3 T at right kidney; after 10 minutes; vs left kidney and control. The text has this:
Next, an guidance example using a guidance system will be described. […] The metal plate 236, especially an iron plate, is placed between the pair of magnets 230 and 232 so that a magnetic field of locally uniform and strong strength can be created. An electrical magnet can be used instead of a magnet to modify the magnetic force generated in this guidance system. The magnetism-generating means can be moved to a target position of the individual on a table to allow the pair of magnetism-generating means to move in the X, Y, and Z directions. The tissue of an individual can be placed in the region of the magnetic field to concentrate the drug in the tissue.
More specifically, for example, the aforementioned Fe salen complex compound (drug concentration: 5 mg/mL (15 mM)) was injected intravenously into a mouse weighing about 30 g, a laparotomy was performed, and the mouse was placed on the iron plate 236 to locate its right kidney between the pair of magnets 230 and 232. […]
Together with the left kidney and a kidney to which no field was applied (control), a magnetic field was applied to the right kidney of the mouse; and after 10 minutes the SNR was measured by MRI in T1 mode and T2 mode.

In the next data set the test system is Clone M3 melanoma cells. The data set is described as follows: Melanoma growth in mouse tail with local magnetic field. Format: in vivo. The settings on record: for melanoma extension (area of melanoma pigmentation): 12 days after initial injection, saline group 100%; for histological examination, tumor expansion of melanoma: HE, anti-Ki-67, anti-Cyclyn D1 staining. As for the experimental part:
Melanoma was established in mouse tails in vivo by local grafting of cultured melanoma cells (Clone M3 melanoma cells). Incidentally, FIG. 11(1) is a photograph showing the effects of a saline group (saline) into which the saline water was injected instead of the Fe salen complex compound; FIG. 11(2) is a photograph showing the effects of a group (SC) into which the Fe salen complex compound was injected without applying the magnetic field; and FIG. 11(3) is a photograph showing the effect of a group (SC+Mag) into which the Fe salen complex compound was injected while applying the magnetic field (n=7-10).
The Fe salen complex compound (50 mg/kg) was administered intravenously via tail vein, followed by local application of a magnetic field by the use of a commercially available bar magnet (630 mT, a cylindrical neodymium magnet, 150 mm long and 20 mm in diameter). Application of a bar magnet was performed with 3 hour gentle contact with the site of melanoma immediately after injection of the Fe salen complex compound for 10-14 days.
Application of the bar magnet was performed in such a way so that the magnetic field strength became maximal over the area of expected melanoma extension, which was approximately […] or shorter in a mouse tail for a growth period of 2 weeks. Twelve days after the initial injection of the Fe salen complex compound, the extension of melanoma was evaluated by assessing the area of melanoma pigmentation.
A histological examination was performed as shown in FIG. 13 by means of Hematoxylin-Eosin staining and immuno-histochemical staining with an anti-Ki-67 antibody and an anti-Cyclyn D1 antibody which are both tumor proliferation markers in tissue sections.

Data set [3] is described as follows: Temperature rise of ointments under AC magnetic field. The data set is classed as physicochemical. The settings on record: AC field 258 A, 400 kHz, 51.74 mT; for temperature rise of ointment: 300 seconds. As to the method: The aforementioned Fe salen complex compound was mixed with Vaseline, which is an adjuster for ointments, as a base at concentrations of 100 mmol and 200 mmol, respectively, to produce ointments. Then, the relationship between time and a temperature rise was measured by applying an AC magnetic field to these ointments under conditions of 258 A, 400 kHz, and 51.74 mT.
Then, the compound expressed by the aforementioned Formula (I) was mixed with Kenalog, which is an ointment for stomatitis, as a base at concentrations of 100 mmol and 200 mmol, respectively, to produce ointments. Then, the relationship between time and a temperature rise was measured by applying an AC magnetic field to these ointments under conditions of 258 A, 400 kHz, and 51.74 mT.
Next, as comparisons, the relationship between time and a temperature rise was measured by applying an AC magnetic field to each of 200 mg Vaseline and 200 mg Kenalog under conditions of 258 A, 400 kHz, and 51.74 mT.

Data set [4] is described as follows: Temperature rise under near infrared radiation. The settings on record: 100 mmol in agarose; near infrared 600 nm to 1600 nm, 10 W. The data set is classed as physicochemical. As for the experimental part:
Next, a diatomic Fe salen complex compound (CAS#14167-12-5; produced by Tokyo Chemical Industry Co., Ltd.) was dissolved in agarose to produce a 100 mmol solution, which was put in a test tube, thereby preparing a sample. A sample of pure water put in a test tube was also prepared as a comparison. Then, these samples were respectively exposed to medical near infrared radiation (wavelengths: 600 nm to 1600 nm) by TOKYO IKEN CO., LTD. by using Super Lizer PX Type I (output: 10 W).

Molecules are shown by their SMILES.

As for `[Fe+2].[O-]c1ccccc1C=NCCN=Cc1ccccc1[O-]` [Fe salen complex compound], the magnetization entry in data set [1] is reported as “largest magnetization”. Further, the “number of cells at position proximal to the magnet vs position distal to the magnet” value in the data set on rat L6 cell is “dramatically lower number of cells”. In addition, the “drug retention in right kidney (SNR by MRI, T1 and T2 mode)” value in data set [2] is on record as “possible to make the drug stay in the right kidney”. Further, the “melanoma extension (area of melanoma pigmentation)” value in the data set with Clone M3 melanoma cells (SC group: 50 mg/kg i.v., no magnetic field) is 63.68±16.3%; in the data set with Clone M3 melanoma cells (SC+Mag group: 50 mg/kg i.v. plus bar magnet 630 mT, 3 hour), 9.05±3.42%. The “histological examination, tumor expansion of melanoma” value was “tumor expansion of melanoma diminished” in the data set on Clone M3 melanoma cells (SC, no magnetic field) and “mostly disappeared” in the data set on Clone M3 melanoma cells (with magnetic force field application). For the same compound, the “temperature of ointment immediately after the measurement (0 second)” value was determined as 35 degrees Celsius in data set [3] (Kenalog base, 100 mmol); 35 degrees Celsius in data set [3] (Kenalog base, 200 mmol); 35 degrees Celsius in data set [3] (Vaseline base, 100 mmol); 35 degrees Celsius in data set [3] (Vaseline base, 200 mmol). Besides, the “temperature rise of ointment” value in data set [3] (Kenalog base, 200 mmol) is recorded as “approximately 5 degrees Celsius”; in data set [3] (Vaseline base, 200 mmol), “approximately 5 degrees Celsius”.

`Oc1ccccc1C=NCCN=Cc1ccccc1O.[Fe+2]` [diatomic Fe salen complex compound]: in data set [4], the “temperature of sample 300 seconds later” value was “approximately 53 degrees Celsius” and the “temperature of sample immediately after the measurement (0 second)” value amounted to 26 degrees Celsius.
